Test system: human LS174T cell culture model of goblet cells
Assay: Goblet cell gene expression by quantitative RT-PCR
Format: cell-based
Conditions: 5 mg HMO/ml, compared to control cultures
Experimental: 2′-FL and LNnT are tested with respect to their ability to induce MUC2, TFF3, EIMβ, CHST5, and GAL3ST2 expression in the human LS174T cell culture model of goblet cells. The human LS174T cell line is obtained from the American Type Culture Collection (ATCC). LS174T cells are maintained in minimum essential medium (MEM) supplemented according to instructions at 37° C. in air containing 5% of CO2. 2′-FL and LNnT are dissolved in cell culture grade water to the required concentration. The LS174T cells are treated with the HMO solution containing 0 or 5 mg HMO/ml. The LS174T cells are collected and suspended in Trizol reagent and total RNA is isolated using an RNA analysis kit (Qiagen) according to the manufacturer's instructions and the RNA isolates are quantified using Nanodrop analysis (Thermo Fisher Scientific). RNA isolates are reverse transcribed using a high capacity cDNA Reverse Transcription Kit (Applied Biosystems) to create cDNA, which is then used to assess gene expression via quantitative RT-PCR. For the quantitative RT-PCR, specific TaqMAN gene expression assays are obtained from Applied Biosystems, which include expression assays for MUC2, TFF3, CHST5 and GAL3ST2. Quantitative real-time PCR is performed using TaqMAN PCR Master Mix (Applied Biosystems). Reactions are run in duplicates in a 384-well plate using an Applied Biosystems 7900HT Fast Real-Time PCR System. The results are analysed using SDS 2.3 software and calculated by delta Ct method. All samples are normalized to Gus-β expression and fold induction is calculated over untreated controls. Gene expression is expressed as fold increase compared to HMO-free control cells. The experiment is repeated three times.

Row | Molecule | expression of CHST5 | expression of GAL3ST2 | expression of the MUC2 gene | expression of the TFF3 gene
1 | 2′-fucosyllactose [2′-FL] | minimal induction | lack of induction | increases | increases
2 | CC(=O)N[C@H]1[C@H](O[C@H]2[C@@H](O)[C@@H](CO)O[C@@H](O[C@H]3[C@H](O)[C@@H](O)C(O)O[C@@H]3CO)[C@@H]2O)O[C@H](CO)[C@@H](O[C@@H]2O[C@H](CO)[C@H](O)[C@H](O)[C@H]2O)[C@@H]1O (mixture of isomers) [LNnT, lacto-N-neotetraose] | minimal induction | lack of induction | increases | increases
